Data: US9006450B2 (Boehringer Ingelheim International GmbH, priority 2010, dated 2015)

molecular target: T1, human ACC2 (Homo sapiens, UniProt O00763); experiment: ACC2 assay, spectrophotometric 384 well assay (NADH-linked, coupled lactate dehydrogenase/pyruvate kinase); assay type: biochemical; settings: ACC2 assay, hACC2 construct lacking 128 N-terminal amino acids, 25° C., 340 nm; read-out: IC50
T1 construct: made in house; host or cells: insect cells (baculoviral expression system)
Method in brief: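 ADP output tracked via pyruvate kinase/lactate dehydrogenase NADH oxidation, slope at 340 nm over 15 min, 25° C, with 500 μM ATP and 200 μM each acetyl-CoA and NADH. Enzyme: insect-cell-expressed human ACC2, N-terminal 128 residues deleted; pH 7.5 Tris with citrate, KHCO3. IC50 from four-parameter regression versus vehicle and no-acetyl-CoA controls.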

T1 sequence (O00763 129-2458 limits assumed): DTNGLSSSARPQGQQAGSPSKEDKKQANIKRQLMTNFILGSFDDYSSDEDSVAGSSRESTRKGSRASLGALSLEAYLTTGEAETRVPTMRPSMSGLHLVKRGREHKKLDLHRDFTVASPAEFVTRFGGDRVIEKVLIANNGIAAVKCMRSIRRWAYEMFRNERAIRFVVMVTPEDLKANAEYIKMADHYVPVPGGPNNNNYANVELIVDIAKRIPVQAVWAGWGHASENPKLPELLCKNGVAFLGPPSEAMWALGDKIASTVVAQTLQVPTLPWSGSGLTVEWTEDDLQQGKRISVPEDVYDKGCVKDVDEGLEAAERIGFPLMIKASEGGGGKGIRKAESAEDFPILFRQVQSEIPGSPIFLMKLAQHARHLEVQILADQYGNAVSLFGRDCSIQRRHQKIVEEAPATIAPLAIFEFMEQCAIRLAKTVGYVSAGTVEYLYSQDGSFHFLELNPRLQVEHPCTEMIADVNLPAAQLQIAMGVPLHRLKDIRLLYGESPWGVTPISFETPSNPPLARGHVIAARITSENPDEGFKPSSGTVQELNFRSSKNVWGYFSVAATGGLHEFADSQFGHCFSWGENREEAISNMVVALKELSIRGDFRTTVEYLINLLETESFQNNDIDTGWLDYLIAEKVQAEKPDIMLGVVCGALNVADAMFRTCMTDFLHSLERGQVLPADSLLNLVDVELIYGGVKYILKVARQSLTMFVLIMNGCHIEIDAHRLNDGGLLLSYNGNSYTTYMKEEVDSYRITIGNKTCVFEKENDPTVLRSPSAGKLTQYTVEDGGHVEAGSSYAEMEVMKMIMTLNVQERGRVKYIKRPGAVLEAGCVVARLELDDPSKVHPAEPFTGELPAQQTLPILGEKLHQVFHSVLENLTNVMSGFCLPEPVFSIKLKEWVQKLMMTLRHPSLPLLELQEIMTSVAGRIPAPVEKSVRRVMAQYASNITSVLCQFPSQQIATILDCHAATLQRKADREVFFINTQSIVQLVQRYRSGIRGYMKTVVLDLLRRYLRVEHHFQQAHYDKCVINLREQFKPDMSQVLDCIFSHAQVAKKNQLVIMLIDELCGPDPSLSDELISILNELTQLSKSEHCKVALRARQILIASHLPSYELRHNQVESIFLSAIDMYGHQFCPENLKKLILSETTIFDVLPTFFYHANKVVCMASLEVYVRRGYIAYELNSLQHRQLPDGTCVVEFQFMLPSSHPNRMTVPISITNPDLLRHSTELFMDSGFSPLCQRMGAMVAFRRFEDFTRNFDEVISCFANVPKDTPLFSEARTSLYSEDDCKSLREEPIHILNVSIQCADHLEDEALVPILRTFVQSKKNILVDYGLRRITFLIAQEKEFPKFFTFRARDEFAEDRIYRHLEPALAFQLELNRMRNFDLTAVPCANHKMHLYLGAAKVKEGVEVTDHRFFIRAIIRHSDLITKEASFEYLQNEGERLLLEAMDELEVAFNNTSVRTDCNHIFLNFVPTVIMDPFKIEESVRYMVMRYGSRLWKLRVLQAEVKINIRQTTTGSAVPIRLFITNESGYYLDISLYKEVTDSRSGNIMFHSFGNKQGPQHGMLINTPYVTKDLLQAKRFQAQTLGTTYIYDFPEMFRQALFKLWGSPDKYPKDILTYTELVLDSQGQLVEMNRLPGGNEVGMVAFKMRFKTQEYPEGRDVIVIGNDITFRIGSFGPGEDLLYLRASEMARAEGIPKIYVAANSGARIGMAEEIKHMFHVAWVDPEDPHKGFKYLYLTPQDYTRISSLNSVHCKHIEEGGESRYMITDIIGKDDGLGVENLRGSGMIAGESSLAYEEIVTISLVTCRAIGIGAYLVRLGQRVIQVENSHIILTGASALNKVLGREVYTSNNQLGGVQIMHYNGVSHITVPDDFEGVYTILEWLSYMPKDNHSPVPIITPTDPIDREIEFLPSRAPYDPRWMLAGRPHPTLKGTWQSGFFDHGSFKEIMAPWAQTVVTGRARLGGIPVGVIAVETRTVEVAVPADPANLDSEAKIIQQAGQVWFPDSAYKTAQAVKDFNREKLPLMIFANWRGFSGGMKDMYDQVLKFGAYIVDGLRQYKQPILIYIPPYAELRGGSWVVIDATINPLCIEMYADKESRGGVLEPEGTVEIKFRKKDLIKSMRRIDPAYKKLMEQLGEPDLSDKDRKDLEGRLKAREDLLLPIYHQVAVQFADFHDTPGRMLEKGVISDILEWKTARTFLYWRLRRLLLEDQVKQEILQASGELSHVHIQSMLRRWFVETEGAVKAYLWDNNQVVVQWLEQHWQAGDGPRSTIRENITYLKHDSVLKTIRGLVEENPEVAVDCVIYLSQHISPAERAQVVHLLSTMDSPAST

SMILES	IC50 [µM]
CCOc1ccc(N2CCC(c3ccc([C@H](C)NC(=O)c4cnco4)cc3)CC2)cc1 [Example 6.25]	0.34
COc1cccc(Oc2nccc(N3CCC(c4ccc([C@H](C)NC(C)=O)cc4)CC3)n2)c1 [Example 11.32]	1.1
CC(=O)N[C@@H](C)c1ccc(C2CCN(c3ncc(-c4ccccc4F)cn3)CC2)cc1 [Example 10.13]	0.09
CC(=O)N[C@@H](C)c1ccc(C2CCN(c3ccc(Cl)c(F)c3)CC2)cc1 [Example 1.161]	0.64
CC(C)COc1ccc(N2CCC(c3ccc([C@H](C)NC(=O)N(C)C)cc3)CC2)cc1 [Example 1.122]	0.12
CCC(C)Oc1ccc(N2CCC(c3ccc([C@H](C)NC(C)=O)cc3)CC2)c(OC)c1 (stereo partly shown) [Example 1.39]	0.13
C[C@H](NC(=O)N(C)C)c1ccc(C2CCN(c3ccc(OC4CC4)cc3)CC2)cc1 [Example 1.112]	0.21
COc1cccc(-c2cnc(N3CCC(c4ccc([C@H](C)NC(C)=O)cc4)CC3)nc2)c1 [Example 10.3]	0.13
CC(=O)N[C@@H](C)c1ccc(C2CCN(c3ccc(OC(C)C)nc3)CC2)cc1 [Example 1.60]	0.18
COc1ncc(-c2cnc(N3CCC(c4ccc([C@H](C)NC(C)=O)cc4)CC3)nc2)cn1 [Example 10.22]	1.1
COc1ccc(N2CCC(c3ccc([C@H](C)NC(C)=O)cc3)CC2)cc1Cl [Example 8.46]	1
CC(=O)N[C@@H](C)c1ccc(C2CCN(c3nc(N4CCCCC4)ncc3C(F)(F)F)CC2)cc1 [Example 5.201]	0.79
CC(=O)N[C@@H](C)c1ccc(C2CCN(c3ccc(OC4CCCCC4)nc3)CC2)cc1 [Example 1.172]	0.25
CC(=O)N[C@@H](C)c1ccc(C2CCN(c3ncc(-c4ccc(C#N)c(F)c4)cn3)CC2)cc1 [Example 10.1, (S)—N-[1-(4-{1-[5-(4-Cyano-3-fluorophenyl)-pyrimidin-2-yl]-piperidin-4-yl}-phenyl)ethyl]-acetamide]	0.05
CCC(NC(C)=O)c1ccc(C2CCN(c3ccc4c(c3)OCCO4)CC2)cc1 (stereo not shown) [Example 1.201]	4.6
C[C@H](NC(=O)N(C)C)c1ccc(C2CCN(c3ncc4nc(-c5ccsc5)oc4n3)CC2)cc1 [Example 4.302]	0.2
CCCOc1cnc(N2CCC(c3ccc([C@H](C)NC(C)=O)cc3)CC2)nc1 [Example 4.49]	0.21
C[C@H](NC(=O)N(C)C)c1ccc(C2CCN(c3ccc(OC4CCC4)cc3)CC2)cc1 [Example 1.21]	0.08
CC(=O)N[C@@H](C)c1ccc(C2CCN(c3ccnc(OCc4cccnc4)n3)CC2)cc1 [Example 11.34]	23.2
CCC(NC(C)=O)c1ccc(C2CCN(c3ccc(OCC4CC4)cc3)CC2)cc1 (stereo not shown) [Example 1.203]	0.62
CC(=O)N[C@@H](C)c1ccc(C2CCN(c3cccc(OCCC(C)C)c3)CC2)cc1 [Example 9.1, (S)—N-[1-(4-{1-[3-(Isopentyloxy)-phenyl]-piperidin-4-yl}-phenyl)-ethyl]-acetamide]	0.37
CC(=O)N[C@@H](C)c1ccc(C2CCN(c3ncc(-c4cccc5[nH]ccc45)cn3)CC2)cc1 [Example 10.120]	0.74

SMILES	IC50 [µM]
C[C@H](NC(=O)N(C)C)c1ccc(C2CCN(c3ccc(OCC4CC4(F)F)cc3)CC2)cc1 (stereo partly shown) [Example 1.140]	0.09
CC(=O)N[C@@H](C)c1ccc(C2CCN(c3ccc(Br)c(C)n3)CC2)cc1 [Example 5.23]	0.42
C[C@H](NC(=O)C1CC1)c1ccc(C2CCN(c3ccnc(Oc4ccccc4)c3)CC2)cc1 [Example 3.14]	0.42
CC(=O)N[C@@H](C)c1ccc(C2CCN(c3ncc(-c4ccc(C#N)cc4C)cn3)CC2)cc1 [Example 10.61]	0.53
CCC(=O)N[C@@H](C)c1ccc(C2CCN(c3ccnc(Oc4cncnc4)c3)CC2)cc1 [Example 1.169]	1.7
CC(=O)N[C@@H](C)c1ccc(C2CCN(c3ncc4nc(-c5ccsc5)oc4n3)CC2)cc1 [Example 5.5]	0.02
CC(=O)N[C@@H](C)c1ccc(C2CCN(c3ncc(F)cn3)CC2)cc1 [Example 4.40]	0.93
CC(=O)N[C@@H](C)c1ccc(C2CCN(c3cc(I)ccn3)CC2)cc1 [Example 5.17]	1.2
CC(=O)N[C@@H](C)c1ccc(C2CCN(c3ncc(-c4ccc5[nH]ccc5c4)cc3F)CC2)cc1 [Example 10.302]	0.43
CCC(C)Oc1ccc(N2CCC(c3ccc([C@H](C)NC(C)=O)cc3)CC2)cc1 (stereo partly shown) [Example 1.29]	0.08
COC(=O)N[C@@H](C)c1ccc(C2CCN(c3ccc4c(c3)OCCO4)CC2)cc1 [Example 1.17]	0.45
CC(=O)N[C@@H](C)c1ccc(C2CCN(c3ncc(-c4ccc(C)cc4F)cn3)CC2)cc1 [Example 10.129]	0.34
CCOc1ccc(N2CCC(c3ccc([C@H](C)NC(=O)c4ncc[nH]4)cc3)CC2)cc1 [Example 6.35]	7.1
CC(=O)N[C@@H](C)c1ccc(C2CCN(c3ncc(-c4ccc(F)cc4C)cn3)CC2)cc1 [Example 10.60]	0.39
Cc1cccc(-c2cnc(N3CCC(c4ccc([C@H](C)NC(=O)N(C)C)cc4)CC3)nc2)c1 [Example 10.107]	0.11
CCC(=O)N[C@@H](C)c1ccc(C2CCN(c3ncc(C4CC4)cn3)CC2)cc1 [Example 4.54]	1.8
C=CCCOc1cccc(N2CCC(c3ccc([C@H](C)NC(C)=O)cc3)CC2)c1 [Example 9.10]	0.53
CC(=O)N[C@@H](C)c1ccc(C2CCN(c3nc(-c4ccccc4)cs3)CC2)cc1 [Example 5.20]	1.2
CCOc1ccc(N2CCC(c3ccc([C@H](C)NC(=O)OC)cc3)CC2)cc1 [Example 1.5]	0.35
C[C@H](NC(=O)N(C)C)c1ccc(C2CCN(c3ncc4nc(-c5ccccc5)oc4n3)CC2)cc1 [Example 4.47]	0.08
CCCOc1ccc(N2CCC(c3ccc([C@H](C)NC(=O)C4CC4)cc3)CC2)cc1 [Example 1.23]	0.05

The next lines start with the values.

IC50 [µM]	SMILES
0.56	CC(=O)N[C@@H](C)c1ccc(C2CCN(c3ccnc(OC(C)C)n3)CC2)cc1 [Example 11.38]
1.5	CCOc1ccc(N2CCC(c3ccc([C@H](C)NC(=O)Nc4cncnc4)cc3)CC2)cc1 [Example 14.59]
5.2	CC(=O)N[C@@H](C)c1ccc(C2CCN(c3ccnc(NCc4ccoc4)n3)CC2)cc1 [Example 11.100]
0.41	CC(=O)N[C@@H](C)c1ccc(C2CCN(c3ccnc(N(C)Cc4ccccc4)n3)CC2)cc1 [Example 11.83]
2	CCCCNc1nccc(N2CCC(c3ccc([C@H](C)NC(C)=O)cc3)CC2)n1 [Example 11.63]
18.1	CNCCNC(=O)c1cnc(N2CCC(c3ccc([C@H](C)NC(C)=O)cc3)CC2)nc1 [Example 18.58]
1.2	CCC(NC(C)=O)c1ccc(C2CCN(c3ccc(OCC(C)C)cc3)CC2)cc1 (stereo not shown) [Example 15.21]
0.45	C[C@H](NC(=O)N(C)C)c1ccc(C2CCN(c3cnc(OCC4CC4)nc3)CC2)cc1 [Example 16.6]
4.2	CCNc1nccc(N2CCC(c3ccc([C@H](C)NC(C)=O)cc3)CC2)n1 [Example 11.50]
0.44	CC(=O)N[C@@H](C)c1ccc(C2CCN(c3cc(-c4ccc5[nH]ccc5c4)ncn3)CC2)cc1 [Example 22.13]
9.8	CC(=O)N[C@@H](C)c1ccc(C2CCN(c3ncc(C(=O)N(C)Cc4ccncc4)cn3)CC2)cc1 [Example 18.1, (S)-2-{4-[4-(1-Acetylamino-ethyl)-phenyl]-piperidin-1-yl}-pyrimidine-5-carboxylic acid methyl-pyridin-4-ylmethyl-amide]
3.9	CCOc1ncc(N2CCC(c3ccc([C@H](C)NC(=O)C4CC4)cc3)CC2)cn1 [Example 16.8]
0.62	CCNc1ncc(N2CCC(c3ccc([C@H](C)NC(C)=O)cc3)CC2)cn1 [Example 16.4]
0.41	C[C@H](NC(=O)C1CC1)c1ccc(C2CCN(c3ncnc(N(C)CC4CC4)c3F)CC2)cc1 [Example 11.128]
13.3	CCOc1ccc(N2CCC(c3ccc([C@H](C)NC(=O)NCc4cncnc4)cc3)CC2)cc1 [Example 14.62]
1.8	CC(=O)N[C@@H](C)c1ccc(C2CCN(c3ncc(C(=O)N(C)c4ccc(C)cc4)cn3)CC2)cc1 [Example 18.4]
3	CC(=O)N[C@@H](C)c1ccc(C2CCN(c3cc(NC4CC4)ncn3)CC2)cc1 [Example 11.132]
0.66	CC(=O)N[C@@H](C)c1ccc(C2CCN(c3ccnc(N4CCC4)n3)CC2)cc1 [Example 11.98]
0.87	CC(=O)N[C@@H](C)c1ccc(C2CCN(c3cc(N(C)Cc4ccccc4)ncn3)CC2)cc1 [Example 11.82]
2.7	CC(=O)N[C@@H](C)c1ccc(C2CCN(c3nc(C(C)C)no3)CC2)cc1 [Example 25.1, (S)—N-(1-{4-[1-(3-Isopropyl-[1,2,4]oxadiazol-5-yl)-piperidin-4-yl]-phenyl}-ethyl)-acetamide]
0.07	CC(=O)N[C@@H](C)c1ccc(C2CCN(c3ccnc(OC4CC=CC4)c3)CC2)cc1 [Example 19.25]
1.3	CC(=O)N[C@@H](C)c1ccc(C2CCN(c3ccnc(NC4CCCC4)n3)CC2)cc1 [Example 11.61]
2.7	CCNC(=O)N[C@@H](C)c1ccc(C2CCN(c3ccc(OCC)cc3)CC2)cc1 [Example 14.2]
15.6	CC(=O)N[C@@H](C)c1ccc(C2CCN(c3ccnc(NC4CCOCC4)n3)CC2)cc1 [Example 11.73]
9.3	CC(=O)N[C@@H](C)c1ccc(C2CCN(c3cccc(C(=O)O)c3)CC2)cc1 [Example 28.1, (S)-3-(4-(4-(1-Acetamidoethyl)phenyl)piperidin-1-yl)benzoic acid]
21.4	CC(=O)N[C@@H](C)c1ccc(C2CCN(c3ncc(C(=O)NCC4CCCCO4)cn3)CC2)cc1 (stereo partly shown) [Example 18.41]
0.34	C[C@H](NC(=O)C1CC1)c1ccc(C2CCN(c3nc(N(C)CC4CC4)ncc3F)CC2)cc1 [Example 11.125]
